The nature of data set [1]: Accelerated stability study of BrEA and the example 1 formulations. The class given is physicochemical. How it is done: An accelerated stability study of 6 months duration is conducted using BrEA and the formulations from example 1. Samples are taken at 1, 2, 3, 4, 5, and 6 month time points and compared with the specifications listed in example 1. Real time stability (25° C., 60% relative humidity) is conducted using BrEA formulation Lots 1 and 2, with sampling time points at 3, 6, 9, 12, 18, 24, and 36 months. […] The results from the stability testing indicate that BrEA is stable for at least 3 months at elevated temperature and humidity in the Lot 1 and 2 formulations.

The nature of data set [2]: Oral bioavailability of BrEA formulations in rats. In kind it is in vivo. On the procedure: In vivo experiments were conducted to determine the bioavailability of BrEA via oral administration using different formulations. BrEA was (1) solubilized in soya oil, vitamin E oil, a mixture of vitamin E and cremophore or (2) BrEA was micronized and combined with or without a surfactant. These formulations are described below. The formulations were administered orally to rats and BrEA levels were determined in the blood, liver, spleen, kidney, and the lymph nodes. In the studies using micronized BrEA, the brain was evaluated for drug uptake. Twenty-four hour urine and feces were collected when BrEA was solubilized in vitamin E and soya oils and vitamin E mixed with Cremophore. The data from these studies indicate that BrEA enters into the lymphatics but is eliminated rapidly from the other tissues. The amount of ^14C radioactivity recovered in the feces 24 hours after administration was 78 to 83%.
BrEA (5 mg in 1.0 mL of soya oil or vitamin E oil) supplemented with ^14C-labelled BrEA was administered intragastrically to rats. Solubilization of BrEA in the vitamin E or soya oil was facilitated with 50 μL ethanol. Animals (3/time point) were assayed at 1.5, 3, 5.5, and 24 hours after administration and the ^14C-radioactivity was measured in the blood, liver, spleen, kidney, lymph nodes and 24 hour feces and urine. […] The uptake is greater with soya oil than vitamin E oil in the blood, liver, and lymph nodes.
BrEA (5 mg in 1.0 mL of a vitamin E and cremophore) supplemented with ^14C-labelled BrEA was administered intragastrically to rats. Solubilization of BrEA in the vitamin E-cremophore mixture was facilitated by the adding 60 μL ethanol. Animals (4/time point) were sacrificed at 2, 3, 5.5, and 24 hours and ^14C-radioactivity was measured in the blood, liver, spleen, kidney, lymph nodes and 24 hour feces and urine. […] Judging from the values in plasma, liver and lymph nodes, it appears that drug uptake is slower compared with soy oil or vitamin E and its presence in the tissues is more persistent.
Rats, in groups of three males, were orally administered 1.0 mL of 0.9% NaCl containing 10 or 32 mg BrEA micronized with a surfactant, Synperonic PE/F 127 (2.5% wt/wt). Rats were examined at 1.5, 5 and 24 hours after administration. Blood, liver, spleen, kidney, lymph nodes, and brain were assayed for ^14C radioactivity. The levels of BrEA in the blood, in comparison to the experiments with BrEA in Vitamin E oil and soya, were higher, 0.3% at 1.5 hours, and increased after 5 hours to 0.8% and 0.9% of the 10 and 32 mg dose, respectively. Additionally, the values in the lymph nodes were similar to those measured at 1.5 hours and the levels were sustained at 5 hours (5.3 and 5.0%) and 24 hours (3.7 and 3.1%) for the 10 and 32 mg dose, respectively (refer to Table 6).
In a repeated dose experiment, rats were intragastrically administered 1.0 mL 0.9% NaCl containing 2 mg BrEA micronized with Synperonic PE/F 127 (2.5% wt/wt) every 6 to 16 hours. Rats (3/time point) were sacrificed at 40, 72, 84, 90 and 96 hours after the first administration. Blood, liver, spleen, kidney and lymph nodes were assayed for ^14C radioactivity.
Rats, in groups of three males, were orally administered 1.0 mL of 0.9% NaCl containing 2, 4 or 10 mg BrEA micronized without a surfactant. Rats were sacrificed at 1.5, 5 and 24 hours after administration and blood, liver, spleen, kidney, lymph nodes and brain were assayed for ^14C radioactivity. The concentration of BrEA micronized without a surfactant in the observed tissues was lower than BrEA plus a surfactant.

Data set [3] has as its system HIV infected patients with chronic diarrhea. Kind of data set: Treatment of chronic diarrhea in HIV infected patients. The class given is in vivo, human. The settings on record: two HIV infected patients, 60 mg s.c. daily for 10 days, during the period of dosing. On the procedure: Two HIV infected patients with chronic diarrhea were dosed with BrEA as follows. A BrEA formulation (40 mg/mL BrEA in 25% v/v PEG 300, 12.5% v/v ethanol, 5% v/v benzyl benzoate, ˜57.5% v/v propylene glycol) was delivered subcutaneously. The patients received 60 mg of BrEA in 1.5 mL daily for 10 days. […] After the 10-day dosing period ended, diarrhea resumed. In other patients receiveing oral BrEA, diarrhea also went into remission.

Another data set has as its system NK cell. Kind of data set: NK cell counts in HIV/HCV infected patient dosed I.V. with BrEA. In kind it is in vivo, human. The settings on record: predosing 28. How it is done: A patient infected with HIV and HCV was dosed I.V. with BrEA for 3 consecutive days using a formulation that contained 20 mg/mL BrEA in 45% w/v hydroxypropyl-β-cyclodextrin and saline. Four mL of the formulation (80 mg BrEA) was administered to the patient every 4 hours during the 3 day treatment period. The patient's predosing HCV level was 6.5 Log10 as measured by PCR and the HCV level was 6.2 Log10 on the first day of dosing, 5.5 Log10 on the 3rd day of dosing and 4.9 Log10 three days after the last dose was administered. HIV RNA levels as measured by PCR was 5.2 Log10 (predosing), 5.8 Log10 (first day), 5.9 Log10 (third day) and 5.4 Log10 (day 6). The NK cell counts (cells/mm^3) were 28, 41 and 38 at predosing, day 0 and day 3.

Where [4] appears, read: micronized with surfactant, 10 mg dose, 5 hours.
Setting [5] is: micronized with surfactant, 32 mg dose, 5 hours.

With `C[C@]12CC[C@H](O)C[C@@H]1CC[C@@H]1[C@@H]2CC[C@]2(C)C(=O)[C@H](Br)C[C@@H]12` [BrEA, 16α-bromo-3β-hydroxy-5α-androstane-17-one], the “assay potency of BrEA” value in data set [1] (after 3 months of storage at 40° C. and 75% relative humidity) was “at least 95 % of the label value”. In addition, the “time BrEA is stable” value in data set [1] (elevated temperature and humidity, in the Lot 1 and 2 formulations) is listed as “at least 3 months”. The “levels of BrEA in the blood” value in data set [2] (BrEA micronized with Synperonic PE/F 127, 1.5 hours) turned out to be 0.3%; in data set [2] (setting [4]), 0.8%; in data set [2] (setting [5]) it was 0.9%. Moreover, the “values in the lymph nodes” value was determined as 5.3% in data set [2] (setting [4]); 3.7% in data set [2] (micronized with surfactant, 10 mg dose, 24 hours); 5.0% in data set [2] (setting [5]); 3.1% in data set [2] (micronized with surfactant, 32 mg dose, 24 hours). The “effect on chronic diarrhea” value in data set [3] is recorded as “the diarrhea ceased”. The NK cell counts in the data set with NK cell (day 0) was 41 cells/mm^3; with NK cell (day 3), 38 cells/mm^3.
